Consider five compounds from patent US20220151230A1, “SPECIFICALLY SUBSTITUTED 3-(2-HALOGEN-6-ALKYL-4-PROPINYLPHENYL)-3-PYRROLIN-2-ONES AND TO THE USE THEREOF AS HERBICIDES” (Bayer Aktiengesellschaft, priority 2019, published 2022).

Assay [1] relates to ALOMY. Kind of assay: Pre-emergence herbicidal effect against ALOMY. The assay is classed as in vivo, Alopecurus myosuroides. The conditions noted are these: 320 g/ha, scored visually after 3 weeks vs untreated controls, 100% = plants have died. The text has this: (§1) Seeds of monocotyledonous and dicotyledonous weed plants and crop plants are laid out in sandy loam soil in wood-fiber pots and covered with soil. The compounds of the invention, formulated in the form of wettable powders (WP) or as emulsion concentrates (EC), are then applied to the surface of the covering soil as aqueous suspension or emulsion at a water application rate equating to 600 to 800 L/ha with addition of 0.2% wetting agent.
(§2) After the treatment, the pots are placed in a greenhouse and kept under good growth conditions for the trial plants. The damage to the test plants is scored visually after a test period of 3 weeks by comparison with untreated controls (herbicidal activity in percent (%): 100% activity=the plants have died, 0% activity=like control plants).

Assay [2] relates to AVEFA. Kind of assay: Pre-emergence herbicidal effect against AVEFA. The assay is classed as in vivo, Avena fatua. The settings on record: 320 g/ha, scored visually after 3 weeks vs untreated controls, 100% = plants have died.
Excerpt: as §1, §2

In assay [3] the test system is DIGSA. Kind of assay: Pre-emergence herbicidal effect against DIGSA. The assay is classed as in vivo, Digitaria sanguinalis. The conditions noted are these: 320 g/ha, scored visually after 3 weeks vs untreated controls, 100% = plants have died.
Excerpt: as §1, §2

In assay [4] the test system is LOLRI. Kind of assay: Pre-emergence herbicidal effect against LOLRI. The assay is classed as in vivo, Lolium rigidum. The conditions noted are these: 320 g/ha, scored visually after 3 weeks vs untreated controls, 100% = plants have died.
Excerpt: as §1, §2

Assay [5] concerns SETVI. Kind of assay: Pre-emergence herbicidal effect against SETVI. The assay is classed as in vivo, Setaria viridis. The settings on record: 320 g/ha, scored visually after 3 weeks vs untreated controls, 100% = plants have died.
Excerpt: as §1, §2

The subject of another assay is VIOTR. Kind of assay: Pre-emergence herbicidal effect against VIOTR. The assay is classed as in vivo, Viola tricolor. The settings on record: 320 g/ha, scored visually after 3 weeks vs untreated controls, 100% = plants have died.
Excerpt: as §1, §2

The test system of assay [6] is ECHCG. Kind of assay: Pre-emergence herbicidal effect against ECHCG. The assay is classed as in vivo, Echinochloa crus-galli. The conditions noted are these: 320 g/ha, scored visually after 3 weeks vs untreated controls, 100% = plants have died.
Excerpt: as §1, §2

The test system of assay [7] is ALOMY. Kind of assay: Post-emergence herbicidal effect against ALOMY. The assay is classed as in vivo, Alopecurus myosuroides. The settings on record: one-leaf stage, 80 g/ha, assessed visually after about 3 weeks vs untreated controls, 100% = plants have died. The method, then:
(§3) Seeds of monocotyledonous and dicotyledonous weed and crop plants are laid out in sandy loam soil in wood-fiber pots, covered with soil and cultivated in a greenhouse under good growth conditions. 2 to 3 weeks after sowing, the test plants are treated at the one-leaf stage. The compounds of the invention, formulated in the form of wettable powders (WP) or as emulsion concentrates (EC), are then sprayed onto the green parts of the plants as aqueous suspension or emulsion at a water application rate equating to 600 to 800 l/ha with addition of 0.2% wetting agent. After the test plants have been left to stand in the greenhouse under optimal growth conditions for about 3 weeks, the action of the preparations is assessed visually in comparison to untreated controls (herbicidal action in percent (%): 100% activity=the plants have died, 0% activity=like control plants).

Assay [8] concerns AVEFA. Kind of assay: Post-emergence herbicidal effect against AVEFA. The assay is classed as in vivo, Avena fatua. The conditions noted are these: one-leaf stage, 80 g/ha, assessed visually after about 3 weeks vs untreated controls, 100% = plants have died. The protocol: as §3
The test system of assay [9] is DIGSA. Kind of assay: Post-emergence herbicidal effect against DIGSA. The assay is classed as in vivo, Digitaria sanguinalis. The conditions noted are these: one-leaf stage, 80 g/ha, assessed visually after about 3 weeks vs untreated controls, 100% = plants have died. The protocol: as §3
Assay [10] deals with ECHCG. Kind of assay: Post-emergence herbicidal effect against ECHCG. The assay is classed as in vivo, Echinochloa crus-galli. The conditions noted are these: one-leaf stage, 80 g/ha, assessed visually after about 3 weeks vs untreated controls, 100% = plants have died. The method, then:
as §3

For assay [11], the system named is LOLRI. Kind of assay: Post-emergence herbicidal effect against LOLRI. The assay is classed as in vivo, Lolium rigidum. The conditions noted are these: one-leaf stage, 80 g/ha, assessed visually after about 3 weeks vs untreated controls, 100% = plants have died. The protocol:
as §3

In assay [12] the test system is SETVI. Kind of assay: Post-emergence herbicidal effect against SETVI. The assay is classed as in vivo, Setaria viridis. The conditions noted are these: one-leaf stage, 80 g/ha, assessed visually after about 3 weeks vs untreated controls, 100% = plants have died. The method, then: as §3

On to `CC#Cc1cc(Cl)c(C2=C(OC(=O)OCC)C3(CCC(OC)CC3)NC2=O)c(CC)c1` (stereo not drawn) [Example P21], for which the “Pre-emergence action [%] against ALOMY” value in the assay with ALOMY [1] turned out to be 100%. For the same compound, the “Pre-emergence action [%] against AVEFA” value with AVEFA [2] is recorded as 100%. In the assay on DIGSA [3], the “Pre-emergence action [%] against DIGSA” value is recorded as 100%. In addition, the “Pre-emergence action [%] against LOLRI” value with LOLRI [4] is recorded as 100%. Also, the “Pre-emergence action [%] against SETVI” value with SETVI [5] is 100%. Also, the “Pre-emergence action [%] against VIOTR” value in the assay with VIOTR came to 90%. The “Pre-emergence action [%] against ECHCG” value in the assay on ECHCG [6] is reported as 100%. Further, the “Post-emergence action [%] against ALOMY” value with ALOMY [7] stood at 90%. Further, the “Post-emergence action [%] against AVEFA” value in the assay with AVEFA [8] was found to be 80%. In addition, in the assay on DIGSA [9], the “Post-emergence action [%] against DIGSA” value amounted to 100%. Further, the “Post-emergence action [%] against ECHCG” value with ECHCG [10] is 100%. Besides, the “Post-emergence action [%] against LOLRI” value in the assay on LOLRI [11] was determined as 80%. Besides, the “Post-emergence action [%] against SETVI” value in the assay on SETVI [12] is reported as 100%.
Take `CC#Cc1cc(C)c(C2=C(O)C3(CCCC(OCCOC)C3)NC2=O)c(Br)c1` (stereo not drawn) [Example D6]: in the assay on ALOMY [1], the “Pre-emergence action [%] against ALOMY” value was 100%. In the assay with AVEFA [2], the “Pre-emergence action [%] against AVEFA” value is on record as 100%. Also, in the assay on DIGSA [3], the “Pre-emergence action [%] against DIGSA” value was found to be 100%. In addition, the “Pre-emergence action [%] against LOLRI” value with LOLRI [4] is listed as 100%. Further, the “Pre-emergence action [%] against SETVI” value in the assay on SETVI [5] is 100%. In addition, the “Pre-emergence action [%] against VIOTR” value in the assay with VIOTR is given as 100%. For the same compound, the “Pre-emergence action [%] against ECHCG” value in the assay on ECHCG [6] amounted to 100%. The “Post-emergence action [%] against ALOMY” value with ALOMY [7] turned out to be 100%. In addition, the “Post-emergence action [%] against AVEFA” value in the assay with AVEFA [8] is recorded as 100%. In addition, the “Post-emergence action [%] against DIGSA” value with DIGSA [9] is listed as 100%. Moreover, the “Post-emergence action [%] against ECHCG” value in the assay with ECHCG [10] is reported as 100%. In addition, the “Post-emergence action [%] against LOLRI” value with LOLRI [11] is listed as 100%. Besides, in the assay with SETVI [12], the “Post-emergence action [%] against SETVI” value is 100%.
As for `CC#Cc1cc(Cl)c(C2=C(O)C3(CCC(OC)CC3)NC2=O)c(C2CC2)c1` (stereo not drawn) [Example E24], the “Pre-emergence action [%] against ALOMY” value with ALOMY [1] worked out at 100%. In the assay with AVEFA [2], the “Pre-emergence action [%] against AVEFA” value amounted to 100%. Moreover, the “Pre-emergence action [%] against DIGSA” value in the assay on DIGSA [3] turned out to be 100%. Also, in the assay with LOLRI [4], the “Pre-emergence action [%] against LOLRI” value worked out at 100%. In addition, the “Pre-emergence action [%] against SETVI” value in the assay on SETVI [5] stood at 100%. For the same compound, the “Pre-emergence action [%] against VIOTR” value in the assay with VIOTR is 100%. The “Pre-emergence action [%] against ECHCG” value in the assay with ECHCG [6] worked out at 100%. Further, in the assay with ALOMY [7], the “Post-emergence action [%] against ALOMY” value is reported as 100%. Moreover, in the assay on AVEFA [8], the “Post-emergence action [%] against AVEFA” value amounted to 100%. In addition, the “Post-emergence action [%] against ECHCG” value with ECHCG [10] is 100%. Moreover, in the assay on LOLRI [11], the “Post-emergence action [%] against LOLRI” value is on record as 100%. For the same compound, in the assay with SETVI [12], the “Post-emergence action [%] against SETVI” value turned out to be 100%.
For the compound `CC#Cc1cc(C)c(C2=C(O)C3(CCCC(OCC(C)C)C3)NC2=O)c(Cl)c1` (stereo not drawn) [Example D9], in the assay with ALOMY [1], the “Pre-emergence action [%] against ALOMY” value is reported as 100%. Also, the “Pre-emergence action [%] against AVEFA” value with AVEFA [2] worked out at 100%. Also, the “Pre-emergence action [%] against DIGSA” value with DIGSA [3] was determined as 100%. For the same compound, the “Pre-emergence action [%] against LOLRI” value with LOLRI [4] turned out to be 100%. In addition, in the assay with SETVI [5], the “Pre-emergence action [%] against SETVI” value turned out to be 100%. In the assay on VIOTR, the “Pre-emergence action [%] against VIOTR” value amounted to 100%. The “Pre-emergence action [%] against ECHCG” value with ECHCG [6] is on record as 100%. Moreover, the “Post-emergence action [%] against ALOMY” value with ALOMY [7] stood at 100%. Besides, in the assay with AVEFA [8], the “Post-emergence action [%] against AVEFA” value was 90%. The “Post-emergence action [%] against DIGSA” value in the assay with DIGSA [9] stood at 90%. The “Post-emergence action [%] against ECHCG” value in the assay with ECHCG [10] is on record as 100%. Besides, the “Post-emergence action [%] against LOLRI” value in the assay with LOLRI [11] stood at 90%. Further, the “Post-emergence action [%] against SETVI” value with SETVI [12] was 100%.
In the case of `CC#Cc1cc(C)c(C2=C(OC(=O)OC)C3(CCCC(OCC(C)C)C3)NC2=O)c(Cl)c1` (stereo not drawn) [Example Q6], the “Pre-emergence action [%] against ALOMY” value with ALOMY [1] is 100%. Also, the “Pre-emergence action [%] against AVEFA” value with AVEFA [2] turned out to be 90%. The “Pre-emergence action [%] against DIGSA” value in the assay on DIGSA [3] was found to be 100%. In the assay on LOLRI [4], the “Pre-emergence action [%] against LOLRI” value worked out at 100%. Also, the “Pre-emergence action [%] against SETVI” value with SETVI [5] worked out at 100%. Also, the “Pre-emergence action [%] against ECHCG” value in the assay on ECHCG [6] stood at 100%. Further, the “Post-emergence action [%] against ALOMY” value with ALOMY [7] worked out at 100%. The “Post-emergence action [%] against AVEFA” value in the assay on AVEFA [8] was found to be 100%. In addition, the “Post-emergence action [%] against DIGSA” value in the assay on DIGSA [9] worked out at 100%. For the same compound, the “Post-emergence action [%] against ECHCG” value with ECHCG [10] is recorded as 100%. The “Post-emergence action [%] against LOLRI” value in the assay with LOLRI [11] worked out at 100%. Besides, the “Post-emergence action [%] against SETVI” value in the assay with SETVI [12] stood at 100%.
